What was measured:
female SJL mice = test: EAE induced with PLP 139-151 in female SJL mice (clinical scores, spinal cord histopathology); type: in vivo; settings: for Demyelinated foci/section / Inflammatory foci/section: spinal cord at peak of disease
[1] = tested on: T cells from naïve BV8S2 transgenic female mice; test: In vitro effect of 17β-estradiol on T cells from naïve BV8S2 transgenic female mice; type: cell-based
Experimental: Proliferation assay. Proliferation responses of splenic T cells were determined essentially as described in Example II, except that antigen was used at an optimal concentration of 50 μg/ml.
Measurement of cytokine secretion. Lymph nodes of naïve BV8S2 TCR transgenic females were suspended at 4×10^6 cells/ml in stimulation medium with antigen and with or without 2000 pg/ml of 17β-estradiol. Cell culture supernatants were recovered at 72 hours and frozen at −70 C until used. Measurement of cytokines was performed by ELISA essentially as described in Example II.
To evaluate 17β-estradiol effects on antigen specific T cells, splenocytes from naïve BV8S2 single transgenic female mice were stimulated with MBP-Ac1-11 peptide or BV8S2 protein in the presence or absence of a range of 17β-estradiol concentrations.

spinal cord mRNA = test: RNAse protection assay of spinal cords of wildtype and cytokine knockout mice with EAE; type: in vivo
Experimental: RNAse protection assay. Chemokine, chemokine receptor and cytokine mRNAs were detected by RPA essentially as described in Example III, except that analysis was performed on 20 μg total RNA.
Estrogen treatment reduces chemokine and chemokine receptor mRNA expression in the CNS. The egress of inflammatory cells into the CNS is a critical first step in the development of EAE. Chemokines are low molecular weight chemotactic molecules that are thought to play an important role in the migration and retention of immunocompetent cells in the CNS. The influence of E2 treatment on chemokine and chemokine receptor mRNA in the spinal cords of WT and cytokine deficient mice was measured using the RNAse protection assay (RPA). Total RNA was purified from spinal cords collected from mice at the peak of EAE (day 12-16 post-immunization) and chemokine/chemokine receptor specific mRNA was detected using radiolabeled riboprobes. mRNAs coding for many of the chemokine and receptor family members were detectable in the spinal cords of WT C57BL/6 mice with EAE (FIG. 18). RANTES and IP-10 were expressed at the highest levels, followed by MIP-1α, MIP-2 and MCP-1. The levels of TCA-3 mRNA were below the limits of detection for this assay. […]
The expression of cytokine mRNA in the spinal cords of mice at the peak of EAE (day 12-16 post-immunization) was measured by RPA analysis. […]

[2] = tested on: draining lymph node (LN) cells; test: MOG 35-55 stimulated proliferation of draining lymph node cells; type: in vivo; settings: WT and cytokine deficient mice, 2.5 mg pellet
Experimental: Proliferation assay. Proliferation assays were performed on draining lymph node (DLN) and spleen (SP) cells essentially as described in Examples I and II, using MOG 35-55 as the test antigen. […] Proliferation of draining lymph node (LN) cells from either untreated or E2 treated mice was measured to determine if E2 could alter the ability of T lymphocytes to recognize and respond to the immunizing antigen. LN cells were isolated from three representative mice for each group and the cells pooled prior to stimulation with MOG 35-55 for 72 hr.

C[C@]12CC[C@@H]3c4ccc(O)cc4CC[C@H]3[C@@H]1CC[C@@H]2O [17β-estradiol]
CDI (cumulative disease index) (female SJL mice; 0.025 mg/pellet (diestrus)): 19.2 ± 10.0
Incidence (female SJL mice; 0.025 mg/pellet (diestrus)): 15/18
Incidence (%) (female SJL mice; 0.025 mg/pellet (diestrus)): (83%)
Onset (female SJL mice; 0.025 mg/pellet (diestrus)): 15.8 ± 3.5 days
Peak (disease score) (female SJL mice; 0.025 mg/pellet (diestrus)): 3.6 ± 1.3
Relapse (female SJL mice; 0.025 mg/pellet (diestrus)): 5/9
Relapse (%) (female SJL mice; 0.025 mg/pellet (diestrus)): (56%)
CDI (cumulative disease index) (female SJL mice; 0.1 mg/pellet (diestrus)): 8.9 ± 3.4
Incidence (female SJL mice; 0.1 mg/pellet (diestrus)): 12/19
Incidence (%) (female SJL mice; 0.1 mg/pellet (diestrus)): (63%)
Onset (female SJL mice; 0.1 mg/pellet (diestrus)): 14.5 ± 2.0 days
Peak (disease score) (female SJL mice; 0.1 mg/pellet (diestrus)): 2.0 ± 0.9
Relapse (female SJL mice; 0.1 mg/pellet (diestrus)): 2/9
Relapse (%) (female SJL mice; 0.1 mg/pellet (diestrus)): (22%)
Demyelinated foci/section (female SJL mice; 0.36 mg pellet): 0.5 ± 0.3 foci/section
Inflammatory foci/section (female SJL mice; 0.36 mg pellet): 1.3 ± 0.8 foci/section
CDI (cumulative disease index) (female SJL mice; 0.36 mg/pellet (estrus)): 9.8 ± 1.9
Incidence (female SJL mice; 0.36 mg/pellet (estrus)): 15/19
Incidence (%) (female SJL mice; 0.36 mg/pellet (estrus)): (79%)
Onset (female SJL mice; 0.36 mg/pellet (estrus)): 15.1 ± 1.3 days
Peak (disease score) (female SJL mice; 0.36 mg/pellet (estrus)): 2.5 ± 0.6
Relapse (female SJL mice; 0.36 mg/pellet (estrus)): 2/9
Relapse (%) (female SJL mice; 0.36 mg/pellet (estrus)): (22%)
Demyelinated foci/section (female SJL mice; 2.5 mg pellet): 0.5 ± 0.4 foci/section
Inflammatory foci/section (female SJL mice; 2.5 mg pellet): 0.6 ± 0.8 foci/section
CDI (cumulative disease index) (female SJL mice; 2.5 mg/pellet (pregnancy)): 7.5 ± 7.9
Incidence (female SJL mice; 2.5 mg/pellet (pregnancy)): 4/10
Incidence (%) (female SJL mice; 2.5 mg/pellet (pregnancy)): (40%)
Onset (female SJL mice; 2.5 mg/pellet (pregnancy)): 13.8 ± 0.5 days
Peak (disease score) (female SJL mice; 2.5 mg/pellet (pregnancy)): 2.0 ± 2.1
Relapse (female SJL mice; 2.5 mg/pellet (pregnancy)): 0/4
Relapse (%) (female SJL mice; 2.5 mg/pellet (pregnancy)): (0%)
comparison of E2 and E3 in incidence or severity of EAE (female SJL mice; Fisher exact test, same animal model): equally protective
IL-12 or IL-10 secretion ([1]; in vitro, 2,000 pg/ml, MBP-Ac1-11 stimulated LN cells): no effects
reduction of secreted IFN-γ protein ([1]; in vitro, 2,000 pg/ml, MBP-Ac1-11 stimulated LN cells, p<0.005): 50%
native T cell proliferation response to MBP-Ac1-11 peptide ([1]; in vitro, 15-2,000 pg/ml): no significant effect
native proliferation response to BV8S2 protein ([1]; in vitro, 15-2,000 pg/ml): modest enhancing effect
IFN-γ or other cytokine secretion ([1]; in vitro, lower doses (150-400 pg/ml)): no inhibitory effects
levels of LT-β, TNF-α and IFN-γ mRNA in spinal cords (spinal cord mRNA; C57BL/6 and cytokine knockout mice, except LT-β in IFN-γ deficient mice): significantly reduced
expression of all chemokine and chemokine receptor mRNA in spinal cord (spinal cord mRNA; WT and cytokine deficient mice, 2.5 mg pellet): significantly diminished or absent
LN proliferation response to MOG 35-55 [2]: no effect
